This is an account of results in patent publication US20120252721A1 (priority 2011, published 2012).

A short description of data set [1]: in vitro. In kind it is cell-based. To be noted: human; GS4.1 cells, cellular viability. The protocol: For cytotoxicity evaluation, GS4.1 cells were treated with compounds as described above and cellular viability was monitored using the Cell Titer 96 AQeous One Solution Cell Proliferation Assay (Promega). CC50 values were determined from the % cytotoxicity versus concentration data with Tecan Magellan software as described above.

The subject of data set [2] is HCV Con1 subgenomic replicon (GS4.1 cells). Briefly: HCV replicon assay (NS5A ELISA, 72 hrs). It counts as cell-based. To be noted: Hepatitis C virus. The method, then: Huh-7 cells containing HCV Con1 subgenomic replicon (GS4.1 cells) were grown in Dulbecco's Modified Eagle Medium (DMEM) supplemented with 10% fetal bovine serum (FBS), 2 mM L-glutamine, 110 mg/L sodium pyruvate, 1× non-essential amino acids, 100 U/mL penicillin-streptomycin, and 0.5 mg/mL G418 (Invitrogen). For dose-response testing, the cells were seeded in 96-well plates at 7.5×10^3 cells/well in a volume of 50 μL, and incubated at 37° C./5% CO2. Three hours after plating, 50 μL often 2-fold serial dilutions of compounds (highest concentration, 75 μM) were added, and cell cultures were incubated at 37° C./5% CO2 in the presence of 0.5% DMSO. Alternatively, compounds were tested at a single concentration of 15 μM. In all cases, Huh-7 cells lacking the HCV replicon served as negative control. The cells were incubated in the presence of compounds for 72 hrs after which they were monitored for expression of the NS5A protein by enzyme-linked immunosorbent assay (ELISA). For this, the plates were then fixed for 1 min with acetone/methanol (1:1, v/v), washed twice with phosphate-buffered saline (PBS), 0.1% Tween 20, blocked for 1 hr at room temperature with TNE buffer containing 10% FBS and then incubated for 2 hr at 37° C. with the anti-NS5A mouse monoclonal antibody A-236 (ViroGen) diluted in the same buffer. After washing three times with PBS, 0.1% Tween 20, the cells were incubated 1 hr at 37° C. with anti-mouse immunoglobulin G-peroxidase conjugate in TNE, 10% FBS. After washing as described above, the reaction was developed with O-phenylenediamine (Zymed). The reaction was stopped after 30 min with 2 NH2SO4, and absorbance was read at 492 nm using Sunrise Tecan spectrophotometer. EC50 values were determined from the % inhibition versus concentration data using a sigmoidal non-linear regression analysis based on four parameters with Tecan Magellan software.
A general note: Replicon systems follow genome replication, usually without infectious particles.

Broadly, the CC50 is the concentration that lowers cell viability or growth by half. The pEC50 is the negative decadic logarithm of the EC50, by convention in mol/L.

pEC50: −log10 of the molar value.

`COC(=O)N[C@H](C(=O)N1CCC[C@H]1c1ncc(-c2csc3c(-c4cnc([C@@H]5CCCN5C(=O)[C@@H](NC(=O)OC)C(C)C)[nH]4)csc23)[nH]1)C(C)C` [Compound A82, ((S)-1-{(S)-2-[5-(6-{2-[(S)-1-((S)-2-methoxycarbonylamino-3-methyl-butyryl)-pyrrolidin-2-yl]-3H-imidazol-4-yl}-thieno[3,2-b]thiophen-3-yl)-1H-imidazol-2-yl]-pyrrolidine-1-carbonyl}-2-methyl-propyl)-carbamic acid methyl ester] registered a half-maximal cytotoxic concentration (CC50) in data set [1] of 10 to 75 µM. Besides, in data set [2], the pEC50 is more than 9.00.

On to `COC(=O)N[C@H](C(=O)N1CCC[C@H]1c1ncc(C#Cc2csc3c(-c4ccc(-c5cnc([C@@H]6CCCN6C(=O)[C@@H](NC(=O)OC)C(C)C)[nH]5)cc4)csc23)[nH]1)C(C)C` [Compound A84, [(S)-1-((S)-2-{4-[4-(6-{2-[(S)-1-((S)-2-methoxycarbonylamino-3-methyl-butyryl)-pyrrolidin-2-yl]-3H-imidazol-4-ylethynyl}-thieno[3,2-b]thiophen-3-yl)-phenyl]-1H-imidazol-2-yl}-pyrrolidine-1-carbonyl)-2-methyl-propyl]-carbamic acid methyl ester], for which the 50% cytotoxic concentration (CC50) in data set [1] was more than 75 µM. For the same compound, the pEC50 in data set [2] was more than 9.00.

The compound `COC(=O)N[C@H](C(=O)N1CCCC1c1cc(-c2ccc(-c3csc4c(-c5ccc(-c6cnc(C7CCCN7C(=O)[C@@H](NC(=O)OC)C(C)C)[nH]6)cc5)csc34)cc2)[nH]n1)C(C)C` (some centres unmarked) [Compound A87] returned a 50% cytotoxic concentration (CC50) in data set [1] of more than 75 µM. This compound gave a pEC50 in data set [2] of more than 9.00.

`COC(=O)N[C@H](C(=O)N1CCCC1c1nc(-c2ccc(-c3cn4cc(-c5ccc(-c6cnc([C@@H]7CCCN7C(=O)[C@@H](NC(=O)OC)C(C)C)[nH]6)cc5)sc4n3)cc2)c[nH]1)C(C)C` (some centres unmarked) [Compound A93] returned a CC50 in data set [1] of more than 75 µM. The negative logarithm of the EC50 (pEC50) in data set [2] was more than 9.00.

Regarding `COC(=O)N[C@H](C(=O)N1CCCC1c1ncc(-c2ccc(-c3csc4c(-c5ccccc5)csc34)cc2)[nH]1)C(C)C` (some centres unmarked) [Compound A103], the CC50 in data set [1] lay within 10 to 75 µM. This compound also had a pEC50 in data set [2] of 8.00 to 9.00.

With `COC(=O)N[C@H](C(=O)N1CCCC1c1nc(-c2ccc(-c3sc4cc(-c5ccc(-c6cnc([C@@H]7CCCN7C(=O)[C@@H](NC(=O)OC)C(C)C)[nH]6)cc5)sc4c3-c3ccc(-c4cnc(C5CCCN5C(=O)[C@@H](NC(=O)OC)C(C)C)[nH]4)cc3)cc2)c[nH]1)C(C)C` (some centres unmarked) [Compound A105], the CC50 in data set [1] fell in the range of 10 to 75 µM. The negative-log EC50 (pEC50) in data set [2] was 7.00 to 8.00.

In the case of `COC(=O)N[C@H](C(=O)N1CCCC1c1ncc(-c2cc3sc(-c4ncc(-c5c[nH]c([C@@H]6CCCN6C(=O)[C@@H](NC(=O)OC)C(C)C)n5)s4)cc3s2)[nH]1)C(C)C` (some centres unmarked) [Compound A130], the CC50 in data set [1] is more than 75 µM. This compound also gave a pEC50 in data set [2] of more than 9.00.

The compound `COC(=O)N[C@H](C(=O)N1CCC[C@H]1C(=O)Nc1cn2cc(-c3ccc(NC(=O)CNC(=O)[C@H](NC(=O)OC(C)(C)C)c4ccccc4)cc3)sc2n1)C(C)C` [Compound A147] had a CC50 in data set [1] of more than 75 µM. For the same compound, in data set [2], the negative-log EC50 (pEC50) is 7.00 to 8.00.

`COC(=O)N[C@H](C(=O)N1CCC[C@H]1c1ncc(-c2ccc(-c3cn4cc(NC(=O)CNC(=O)[C@H](NC(=O)OC(C)(C)C)c5ccccc5)nc4s3)cc2)[nH]1)C(C)C` [Compound A148] returned a CC50 in data set [1] of more than 75 µM. Besides, in data set [2], the pEC50 was 8.00 to 9.00.

In data set [1], `COC(=O)N[C@H](C(=O)N1CCC[C@H]1C(=O)Nc1cn2cc(-c3cccc(NC(=O)[C@@H]4CCCN4C(=O)[C@H](NC(=O)OC)c4ccccc4)c3)sc2n1)C(C)C` [Compound A149] displayed a CC50 of 10 to 75 µM. Besides, in data set [2], the pEC50 is 7.00 to 8.00.

The compound `COC(=O)N[C@H](C(=O)N1CCC[C@H]1c1ncc(-c2ccc(-c3cn4cc(NC(=O)[C@@H]5CCCN5)nc4s3)cc2)[nH]1)C(C)C` [Compound A150] registered a CC50 in data set [1] of 10 to 75 µM. Moreover, the pEC50 in data set [2] was 7.00 to 8.00.

As for `COC(=O)N[C@H](C(=O)N1CCCC1c1ncc(-c2ccc(-c3csc4c(-c5cnc(C6CCCN6C(=O)OC(C)(C)C)[nH]5)csc34)cc2)[nH]1)C(C)C` (some centres unmarked) [Compound A151], the CC50 in data set [1] lay within 10 to 75 µM. This compound also had a negative-log EC50 (pEC50) in data set [2] of more than 9.00.

The compound `CC(C)(C)OC(=O)N1CCCC1c1ncc(-c2cn3cc(-c4ccc(Cl)cc4)sc3n2)[nH]1` (centres unmarked) [Compound A152] had a 50% cytotoxic concentration (CC50) in data set [1] of 10 to 75 µM. Also, the pEC50 in data set [2] was less than 7.00.

As for `COC(=O)N[C@H](C(=O)N1CCCC1c1ncc(-c2cn3cc(-c4ccc(Cl)cc4)sc3n2)[nH]1)C(C)C` (some centres unmarked) [Compound A153], the CC50 in data set [1] fell in the range of 10 to 75 µM. In data set [2], this compound gave a negative-log EC50 (pEC50) of 7.00 to 8.00.

On to `COC(=O)N[C@H](C(=O)N1CCCC1c1ncc(-c2ccc(-c3ccc(-c4nc5sccn5c4Cl)cc3)cc2)[nH]1)C(C)C` (some centres unmarked) [Compound A154], for which, in data set [1], the 50% cytotoxic concentration (CC50) was 10 to 75 µM. The compound also had a pEC50 in data set [2] of 7.00 to 8.00.

Turning to `COC(=O)N[C@H](C(=O)N1CCC[C@H]1c1ncc(-c2ccc(-c3csc4c(Br)csc34)cc2)[nH]1)C(C)C` [Compound A155, [(S)-1-((S)-2-{4-[4-(6-bromo-thieno[3,2-b]thiophen-3-yl)-phenyl]-1H-imidazol-2-yl}-pyrrolidine-1-carbonyl)-2-methyl-propyl]-carbamic acid methyl ester], the cytotoxic concentration (CC50) in data set [1] lay within 10 to 75 µM. This compound had a negative logarithm of the EC50 (pEC50) in data set [2] of 7.00 to 8.00.

In the case of `COC(=O)N[C@H](C(=O)N1CCC[C@H]1c1cc(-c2ccc(-c3cn4cc(NC(=O)[C@@H]5CCCN5C(=O)[C@H](NC(=O)OC(C)C)c5ccccc5)nc4s3)cc2)[nH]n1)C(C)C` [Compound A156], in data set [1], the CC50 was more than 75 µM. Further, in data set [2], the negative-log EC50 (pEC50) is more than 9.00.

`CC(C)(C)OC(=O)N1CCCC1c1nc(-c2ccc(-c3cn4cc(-c5ccc(-c6cnc([C@@H]7CCCN7C(=O)OC(C)(C)C)[nH]6)cc5)sc4n3)cc2)c[nH]1` (some centres unmarked) [Compound A157] came in with a CC50 in data set [1] of more than 75 µM. In addition, the negative logarithm of the EC50 (pEC50) in data set [2] was 7.00 to 8.00.

`CC(C)(C)OC(=O)N1CCC[C@H]1c1ncc(-c2ccc(-c3cn4c(-c5ccccc5)csc4n3)cc2)[nH]1` [Compound A158]: the 50% cytotoxic concentration (CC50) in data set [1] was in the range of 10 to 75 µM. In addition, the negative logarithm of the EC50 (pEC50) in data set [2] was less than 7.00.

`COC(=O)N[C@H](C(=O)N1CCCC1c1nc(-c2ccc(-c3cc4sc(-c5ccc(-c6cnc([C@@H]7CCCN7C(=O)[C@@H](NC(=O)OC)C(C)C)[nH]6)cc5)cc4s3)cc2)c[nH]1)C(C)C` (some centres unmarked) [Compound A159] yielded a CC50 in data set [1] of more than 75 µM. In data set [2], this compound had a pEC50 of more than 9.00.

In data set [1], `COC(=O)N[C@H](C(=O)N1CCCC1c1ncc(-c2ccc(-c3cn4ccsc4n3)cc2)[nH]1)C(C)C` (some centres unmarked) [Compound A160] had a CC50 of more than 75 µM. This compound gave a pEC50 in data set [2] of 7.00 to 8.00.

Regarding `CC(C)(C)OC(=O)N1CCCC1c1ncc(-c2ccc(-c3nc4sccn4c3Cl)cc2)[nH]1` (centres unmarked) [Compound A161], the CC50 in data set [1] is more than 75 µM. In data set [2], the pEC50 was less than 7.00.

`COC(=O)N[C@H](C(=O)N1CCCC1c1ncc(-c2ccc(-c3cn4c(-c5ccccc5)csc4n3)cc2)[nH]1)C(C)C` (some centres unmarked) [Compound A162]: in data set [1], the CC50 was in the range of 10 to 75 µM. In data set [2], the pEC50 is 8.00 to 9.00.

In data set [1], `COC(=O)N[C@H](C(=O)N1CCCC1c1nc(-c2ccc(-c3c(C(=O)OC)[nH]c4c(-c5ccc(-c6cnc(C7CCCN7C(=O)[C@@H](NC(=O)OC)C(C)C)[nH]6)cc5)csc34)cc2)c[nH]1)C(C)C` (some centres unmarked) [Compound A163] yielded a CC50 of more than 75 µM. Further, the pEC50 in data set [2] was more than 9.00.

Regarding `COC(=O)N[C@H](C(=O)N1CCCC1c1ncc(-c2ccc(-c3csc4cc(C(=O)OC)[nH]c34)cc2)[nH]1)C(C)C` (some centres unmarked) [Compound A164], the 50% cytotoxic concentration (CC50) in data set [1] lay in the range of 10 to 75 µM. For the same compound, in data set [2], the pEC50 is 7.00 to 8.00.
